Publication PMC9652379, “Safety evaluations of a synthetic antimicrobial peptide administered intravenously in rats and dogs” (Scientific Reports, 2022)
≈ marks a conversion by molar mass, not a printed value. Positions of bridges follow the written chain, without caps; N, C: chain ends. Non-standard residues stand in square brackets, D forms with d. Residues, ends and D or L forms follow the SMILES beside them. Chains are numbered I, II in the order given. βAla = NCCC(=O)O

Assays:
beagle dogs = test: Four-week toxicity study with 4-week recovery in dogs: survival, ECG, NOAEL; format: in vivo, dog
Method: Beagle dogs (5/sex/group) were dosed by intravenous infusion once daily for 1 h with 0 (0.9% sodium chloride for injection), 0.5, 1.5 or 4.0 mg/kg/day SET-M33 for four consecutive weeks. The doses were selected in the dog DRF study (above). The dose of 4 mg/kg/day was selected as the highest dose without macroscopic side effects in the DRF study, and was used to evaluate renal toxicity and its reversibility. The dose of 0.5 mg/kg/day was selected as the lowest dose, about one order of magnitude less than the highest dose. The dose of 1.5 mg/kg/day was selected as an approximately median mid-dose. On completion of 4 weeks of infusion, three animals/sex/group were euthanized and necropsied and the remaining two animals/sex/group were held for a 4-week drug free recovery period after which they were euthanized and necropsied. Blood samples were obtained from all animals on days 1 and 28 for toxicokinetic analysis.
Animals were observed daily for mortality and signs of severe toxic or pharmacological effects. […] Blood obtained via jugular venepuncture from anaesthetized dogs was used to analyse blood, coagulation and clinical chemistry parameters for 5 animals/sex/group pre-test and at termination of dosing and from 2 animals/sex/group at the end of recovery.

in vivo = details: dog
Method: Concentrations of SET-M33 in dog plasma samples and the main toxicokinetic parameters were determined. The exposure parameters (AUCt and Cmax) were compared to evaluate dose-dependency, accumulation ratio and sex-related differences. […] Mean SET-M33 plasma levels increased in parallel in males and females. Mean time to maximum SET-M33 concentration (tmax) was after the end of infusion for both periods (days 1 and 7) and sexes, i.e. 30 min post-dose, coherently with intravenous administration. On day 1 and 7, mean AUCt and Cmax values for the low vs. high dose were close to the theoretical ratio of 2.
Blood samples were taken by direct venepuncture of the jugular vein on days 1 and 7 to determine plasma levels of SET-M33. Sampling times were as follows: Day 1: at 0, 5, 15, 30, 60 and 180 min. Day 7: at 0, 5, 15, 30, 60, 180 min and 24 h after administration. Control animals were only bled once on days 1 and 7 of treatment, 1 h after administration. Blood samples were collected into lithium heparin test tubes and kept in an ice bath until centrifuging (1600 g for 10 min at 2–8 °C). The plasma obtained from each sample was transferred to a fresh polypropylenes test tubes, immediately frozen in dry ice and stored at − 20 °C ± 5.

Sprague Dawley rats = test: Four-week toxicity study in rats: clinical biochemistry and urinalysis; format: in vivo, rat; details: mean ± SD
Method: The purpose of this study was to evaluate the toxic effects of SET-M33 when administered intravenously to Sprague Dawley rats for 4 weeks. Recovery was evaluated during a 14-day drug-free period. The peptide was administered once a day at three dose levels at 5, 9 and 15 mg/kg/day, and the control group was treated with the vehicle (ten males and ten females per group which were sacrificed after 4 weeks for clinical and necroscopy analyses; five males and five females for the control and 15 mg/kg/day groups which were sacrificed after the 2 weeks recovery period). The higher dose was selected on the basis of the DRF study (above) in which evident toxicity was recorded at the dose of 20 mg/kg. The efficacy dose in mouse is 5 mg/kg[24]. The lowest dose of this test is approximately twice the equivalent efficacy dose in rat (using body surface area) and the intermediate dose is approximately the geometric mean of the other two.
Blood samples were collected into lithium heparin tubes. The following parameters were determined using a Cobas 6000 Analyzer (Roche): glucose (Gluc), urea (Urea), creatinine (Creat), bilirubin, total (Bili), cholesterol, total (Chol), triglycerides (Trig), aspartate aminotransferase (AST), alanine aminotransferase (ALT), alkaline phosphatase (ALP), creatine kinase (CK), gamma-glutamyl-transferase (gGT), calcium (Ca), inorganic phosphorus (Phos), sodium (Na), potassium (K), chloride (Cl), albumin (Alb), globulin (calculated from total protein and Alb%) (Glob), total protein (Total Prot), album/globulin ratio (A/G ratio).
Urine was collected overnight into specimen vials (animals were placed in metabolism cages at the end of the working day preceding the day of urine collection). The following parameters were determined using a Cobas u 411 semi-automated test strip analyser (Roche): specific gravity (SG1), protein (Prot), ketones (Keto), volume (Vol), creatinine (U-Creat), bilirubin (Bili), colour (Col), glucose (U-Gluc), erythrocytes (U-RBC), appearance (App), nitrite (Nite), pH, leukocytes (U-WBC).

P. aeruginosa = details: cited from earlier work

CC[C@H](C)[C@H](NC(=O)[C@H](CCCCN)NC(=O)[C@@H](N)CCCCN)C(=O)N[C@@H](CCCNC(=N)N)C(=O)N[C@H](C(=O)N[C@@H](CCCNC(=N)N)C(=O)N[C@@H](CC(C)C)C(=O)N[C@@H](CO)C(=O)N[C@@H](C)C(=O)NCCCC[C@H](NC(=O)[C@H](C)NC(=O)[C@H](CO)NC(=O)[C@H](CC(C)C)NC(=O)[C@H](CCCNC(=N)N)NC(=O)[C@@H](NC(=O)[C@H](CCCNC(=N)N)NC(=O)[C@@H](NC(=O)[C@H](CCCCN)NC(=O)[C@@H](N)CCCCN)[C@@H](C)CC)C(C)C)C(=O)NCCCC[C@H](NC(=O)[C@H](CCCCNC(=O)[C@H](C)NC(=O)[C@H](CO)NC(=O)[C@H](CC(C)C)NC(=O)[C@H](CCCNC(=N)N)NC(=O)[C@@H](NC(=O)[C@H](CCCNC(=N)N)NC(=O)[C@@H](NC(=O)[C@H](CCCCN)NC(=O)[C@@H](N)CCCCN)[C@@H](C)CC)C(C)C)NC(=O)[C@H](C)NC(=O)[C@H](CO)NC(=O)[C@H](CC(C)C)NC(=O)[C@H](CCCNC(=N)N)NC(=O)[C@@H](NC(=O)[C@H](CCCNC(=N)N)NC(=O)[C@@H](NC(=O)[C@H](CCCCN)NC(=O)[C@@H](N)CCCCN)[C@@H](C)CC)C(C)C)C(=O)NCCC(=O)O)C(C)C [SET-M33] (I: H-KKIRVRLSAKK[βAla]-OH / II: H-KKIRVRLSAK / III: H-KKIRVRLSA / IV: H-KKIRVRLSA; amide I:10-IV:C, I:11-II:C, II:10-III:C (inferred); N-terminus and C-terminus assumed)
effect on heart function, ECG parameters (heart rate, PR, QRS, QT and QTc intervals) (beagle dogs; beagle dogs, daily iv infusion at ≥ 0.5 mg/kg/day, males and females): did not produce any observable effect on heart function
survival (beagle dogs; dogs, 0.5, 1.5 or 4.0 mg/kg/day 1-h iv infusion, 4 weeks + 4-week recovery): All animals survived until their scheduled termination
tmax (in vivo; both sexes, beagle, iv): 30 min
quantifiable plasma concentrations until, after the start of infusion (in vivo; 8 mg/kg/day): up to 24.5 h
Phos, inorganic phosphorus (Sprague Dawley rats; female rats, 9 mg/kg/day iv, week 4 of treatment): 1.49 ± 0.415 mmol/L
Phos, inorganic phosphorus (Sprague Dawley rats; female rats, 15 mg/kg/day iv 4 weeks, week 2 of recovery): 2.04 ± 0.616 mmol/L
Phos, inorganic phosphorus (Sprague Dawley rats; male rats, 5 mg/kg/day iv, week 4 of treatment): 1.97 ± 0.309 mmol/L
Phos, inorganic phosphorus (Sprague Dawley rats; male rats, 9 mg/kg/day iv, week 4 of treatment): 2.26 ± 0.393 mmol/L
Phos, inorganic phosphorus (Sprague Dawley rats; male rats, 15 mg/kg/day iv 4 weeks, week 2 of recovery): 2.83 ± 1.37 mmol/L
MIC50 (P. aeruginosa): 1.4 µM (≈ 6.56 µg/mL)
MIC90 (P. aeruginosa): 1.4 µM (≈ 6.56 µg/mL)
